Measured values as given in PMC6747070, “β-Glucose-1,6-Bisphosphate Stabilizes Pathological Phophomannomutase2 Mutants In Vitro and Represents a Lead Compound to Develop Pharmacological Chaperones for the Most Common Disorder of Glycosylation, PMM2-CDG” (International Journal of Molecular Sciences, 2019).

What was measured:
PMM2 (wt-PMM2) [1] = target: T1, PMM2 (wt-PMM2) (Homo sapiens, UniProt O15305); experiment: […]-NMR phosphomannomutase assay; format: biochemical; conditions: inhibitor; βG16P 5 or 50 μM; 1 mM αM1P, activator αG16P 5 μM; Hepes pH 7.3, MgCl2 1 mM, 32 °C
T1 construct: recombinant, vector Pet22b+, E. coli BL21(DE3), no tag mentioned; homodimer; DEAE-Sepharose and Superdex 75 purification
T1 sequence (O15305 2-246): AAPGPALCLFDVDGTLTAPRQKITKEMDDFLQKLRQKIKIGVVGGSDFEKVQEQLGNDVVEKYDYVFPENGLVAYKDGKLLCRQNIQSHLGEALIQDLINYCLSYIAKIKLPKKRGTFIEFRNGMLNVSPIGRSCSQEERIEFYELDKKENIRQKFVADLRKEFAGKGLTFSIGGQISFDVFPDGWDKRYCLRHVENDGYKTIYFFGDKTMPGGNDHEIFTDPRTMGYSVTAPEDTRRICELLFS

PMM2 (wt-PMM2) [2] = target: T1, PMM2 (wt-PMM2); experiment: thermal shift assay (Sypro Orange); format: binding; conditions: 0.5 mM ligand, without vanadate; Hepes 20 mM pH 7.5, Mg2+, NaCl, DTT

Structure (SMILES)	inhibition (PMM2 (wt-PMM2) [1])	dTm (PMM2 (wt-PMM2) [2])
O=P(O)(O)OC[C@H]1O[C@@H](OP(=O)(O)O)[C@H](O)[C@@H](O)[C@@H]1O [βG16P]	βG16P is not an activator and show that it inhibits PMM2	–
O=P(O)(O)O[C@H]1O[C@H](CO)[C@@H](O)[C@H](O)[C@H]1O [αG1P]	–	αG1P is a stabilizer of PMM2 too
